Laboratory results from EP1035837B1, “LIPID COMPOSITIONS AND THEIR USE” (PHARES PHARMACEUTICAL RESEARCH N.V., priority 1997, dated 1999).
Each block holds one molecule with its values, some of them ahead of it.

How the values were obtained:
[1] = % encapsulation of drug into liposomes from pro-liposome gels (filtration through 200 nm filters, HPLC); type: physicochemical; conditions: Example 3 gel (90% PC, Tris base); average particle size of 1-5µ
Experimental: The % encapsulation of the antifungal drugs miconazole and clotrimazole was determined by filtration of the liposome dispersion and by HPLC analysis of the unfiltered and filtered solutions for drug content. The principle behind the filtration technique is that the liposomes (with encapsulated antifungal). can be passed through 200 nm filters, while unencapsulated drug particles remain too large to pass through the filters. Pro-liposome gels were prepared, containing 2.5% and 1% miconazole and 1% and 0.5% clotrimazole. […] The % encapsulation of drug would be expected to decrease if crystallisation occurred in the gels with time.
Using the method of Example 1, pro-liposome gels were made with various concentrations of amphotericin B. The % encapsulation of the amphotericin B into liposomes (in 0.1% suspensions of the gel formulations) was measured at 3 days, 1 month, 3 months and 6 months after pro-liposome preparation. The gels were stored at 4°C ;in sealed containers, protected from light (Table 4). […]

[2] = cited from earlier work
[3] = Pro-liposome gel formulation work: effect of ethanol and drug concentration on drug solubility, gel formation and gel appearance on storage; type: physicochemical
Experimental: Approximately 10% of the total lipid and all the ethanol were weighed into an amber glass jar and mixed until all the lipid had dispersed. The antifungal drug was added to the lipid/ethanol mixture and further mixing was carried out to break up the drug particles. The remainder of the lipid was added and mixing was continued until all the lipid had been dispersed. The glycerol was then added and stirring was continued until a homogenous gel was obtained. It was clear and translucent with a sweet pleasant taste and could be applied directly to the mucosa. From about 1% to 10% or more, but preferably about 2% to 5% of a hydrophilic polymer or natural gum can be dispersed in powder form to render the preparation muco-adhesive. Compositions utilising lipid blends or lecithins which contain 45% PC, form liposomes on conversion with water. The drug is associated with the liposomes at very high levels, ie greater than 90%.
The preparation of the pro-liposome miconazole and clotrimazole gel was as described above. Early formulation work was carried out to find: • i) A gel formulation with enough ethanol to dissolve the miconazole and clotrimazole giving the gel a translucent appearance, but with […] as to obtain an optimum viscosity profile (Table 1). • ii) A gel formulation with not too much miconazole or clotrimazole to induce crystallisation of the drug in the gel (Table 2).
At this level of ethanol, miconazole drug crystallisation was not seen in 1% and 2.5% miconazole gals.

[4] = Table 1, ethanol 5 %, 45% PC lipid 20 %, drug 1 %, glycerol 74 %
[5] = Table 2, ethanol 5 %, 45%PC 20 %, drug 1 %, glycerol 74 %
[6] = Table 2, ethanol 5 %, 45%PC 20 %, glycerol 72.5 %, drug 2.5 % (clotrimazole line prints 1)
[7] = ethanol 2.5 %, 45% PC lipid 20 %, drug 1 %, glycerol 76.5 %
[8] = ethanol 10 %, 45% PC lipid 20 %, drug 1 %, glycerol 69 %
[9] = ethanol 15 %, 45% PC lipid 20 %, drug 1 %, glycerol 64 %

encapsulation into liposomes formed from the pro-liposome by addition of water [1]: ~100%
SMILES: C[C@@H]1[C@H](O)[C@@H](C)/C=C/C=C/C=C/C=C/C=C/C=C/C=C/[C@H](O[C@@H]2O[C@H](C)[C@@H](O)[C@H](N)[C@@H]2O)C[C@@H]2O[C@](O)(C[C@@H](O)C[C@@H](O)[C@H](O)CC[C@@H](O)C[C@@H](O)CC(=O)O[C@H]1C)C[C@H](O)[C@H]2C(=O)O [Amphotericin B, amphotericin B]

SMILES: Clc1ccc(COC(Cn2ccnc2)c2ccc(Cl)cc2Cl)c(Cl)c1 (stereo not drawn) [Miconazole, 1-[2-dichloro-β-[2,4-dichlorobenzyl)oxyphenethyl]imidazole mononitrate]
solubility in ethanol [2]: very soluble | solubility in water [2]: very slightly soluble | Initial Comments: drug solubility in ethanol + 10% of lipid [3, 4]: Miconazole soluble in ethanol + 10% of lipid. Clear, golden gel formed with good viscosity | Initial Comments: drug solubility in ethanol + 10% of lipid [3, 5]: Miconazole soluble in ethanol + 10% of lipid. Clear, golden gel formed with good viscosity | Initial Comments: drug solubility in ethanol + 10% of lipid [3, 6]: Miconazole soluble in ethanol + 10% of lipid. Clear, golden gel formed with good viscosity | Initial Comments: drug solubility in ethanol + 10% of lipid [3, 7]: Miconazole soluble in ethanol + 10% of lipid. Not enough ethanol to disperse all the lipid and form a gel | Initial Comments: drug solubility in ethanol + 10% of lipid [3, 8]: Miconazole soluble in ethanol + 10% of lipid. Clear, golden gel formed with runny viscosity | Initial Comments: drug solubility in ethanol + 10% of lipid [3, 9]: Miconazole soluble in ethanol + 10% of lipid. Clear, golden gel formed with very runny viscosity

SMILES: Clc1ccccc1C(c1ccccc1)(c1ccccc1)n1ccnc1 [Clotrimazole, 1-(o-chloro-a,a-diphenylbenzyl)imidazole]
solubility in ethanol [2]: soluble | solubility in water [2]: insoluble | Initial Comments: drug solubility in ethanol + 10% of lipid [3, 4]: Clotrimazole soluble in ethanol + 10% of lipid. Clear, golden gel formed with good viscosity | Initial Comments: drug solubility in ethanol + 10% of lipid [3, 5]: Clotrimazole soluble in ethanol + 10% of lipid. Clear, golden gel formed with good viscosity | Initial Comments: drug solubility in ethanol + 10% of lipid [3, 6]: Clotrimazole soluble in ethanol + 10% of lipid. Clear, golden gel formed with good viscosity | Initial Comments: drug solubility in ethanol + 10% of lipid [3, 7]: Clotrimazole insoluble in ethanol + 10% of lipid. Not enough ethanol to disperse all the lipid and form a gel | Initial Comments: drug solubility in ethanol + 10% of lipid [3, 8]: Clotrimazole soluble in ethanol + 10% of lipid. Clear, golden gel formed with runny viscosity | Initial Comments: drug solubility in ethanol + 10% of lipid [3, 9]: Clotrimazole soluble in ethanol + 10% of lipid. Clear, golden gel formed with very runny viscosity
